Test results as given in article PMC11751314, “Engineering of acyl ligase domain in non-ribosomal peptide synthetases to change fatty acid moieties of lipopeptides” (Communications Chemistry, 2025).

Legend:
[1] = target: T1, ItuAL_WT-MycACP (ituAL-ACP1) (Bacillus subtilis, UniProt Q93I56); experiment: HPLC of fatty acyl-AMP formed ([…] nm); assay type: biochemical; details: 1 mM fatty acid, 1 mM ATP, 50 mM MgCl2, 50 mM HEPES pH 7.5, 0.01% Brij35, 30% DMSO, 30 °C, 30 min; 10 μM enzyme, apo-ACP
T1 construct: gene ituA; N-terminally His-tagged fusion of ItuAL (584 aa, RB14) with adjacent MycACP (ATCC6633); pET28a, E. coli BL21-AI; ACP in apo-form; catalytic pocket lies wholly in ItuAL; with Mycosubtilin synthase subunit A, first acyl carrier protein domain
T1 sequence (Q93I56 1-584): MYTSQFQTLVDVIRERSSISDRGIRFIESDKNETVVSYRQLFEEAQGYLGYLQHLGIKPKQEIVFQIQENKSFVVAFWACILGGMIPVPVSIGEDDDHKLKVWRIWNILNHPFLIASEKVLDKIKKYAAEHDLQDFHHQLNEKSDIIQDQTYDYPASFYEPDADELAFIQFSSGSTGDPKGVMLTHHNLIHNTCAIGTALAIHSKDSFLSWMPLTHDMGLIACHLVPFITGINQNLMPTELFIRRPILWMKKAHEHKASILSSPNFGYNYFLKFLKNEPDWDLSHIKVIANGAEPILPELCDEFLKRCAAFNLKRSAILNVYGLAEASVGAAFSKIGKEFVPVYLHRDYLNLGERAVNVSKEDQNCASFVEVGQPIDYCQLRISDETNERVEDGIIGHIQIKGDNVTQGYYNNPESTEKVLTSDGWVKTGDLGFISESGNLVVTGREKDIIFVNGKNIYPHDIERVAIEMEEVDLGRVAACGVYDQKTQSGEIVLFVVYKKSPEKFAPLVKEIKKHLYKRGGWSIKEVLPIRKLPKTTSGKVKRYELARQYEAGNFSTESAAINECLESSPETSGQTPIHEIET
T1 sequence (Q9R9J1 586-668 partner limits assumed): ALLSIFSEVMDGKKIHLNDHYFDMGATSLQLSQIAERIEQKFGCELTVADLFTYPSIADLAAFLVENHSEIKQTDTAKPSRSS

(ituAL-ACP1) = target: T2, (ituAL-ACP1) (Bacillus subtilis, UniProt Q93I56, F208G); experiment: HPLC of fatty acyl-AMP formed ([…] nm); assay type: biochemical; details: 1 mM fatty acid, 1 mM ATP, 50 mM MgCl2, 50 mM HEPES pH 7.5, 0.01% Brij35, 30% DMSO, 30 °C, 30 min; 10 μM enzyme, apo-ACP
T2 construct: gene ituA; N-terminally His-tagged fusion of ItuAL (584 aa, RB14) with adjacent MycACP (ATCC6633); pET28a, E. coli BL21-AI; ACP in apo-form; catalytic pocket lies wholly in ItuAL; with Mycosubtilin synthase subunit A, first acyl carrier protein domain
T2 sequence (Q93I56 entry or part of it F208G, one chain of several): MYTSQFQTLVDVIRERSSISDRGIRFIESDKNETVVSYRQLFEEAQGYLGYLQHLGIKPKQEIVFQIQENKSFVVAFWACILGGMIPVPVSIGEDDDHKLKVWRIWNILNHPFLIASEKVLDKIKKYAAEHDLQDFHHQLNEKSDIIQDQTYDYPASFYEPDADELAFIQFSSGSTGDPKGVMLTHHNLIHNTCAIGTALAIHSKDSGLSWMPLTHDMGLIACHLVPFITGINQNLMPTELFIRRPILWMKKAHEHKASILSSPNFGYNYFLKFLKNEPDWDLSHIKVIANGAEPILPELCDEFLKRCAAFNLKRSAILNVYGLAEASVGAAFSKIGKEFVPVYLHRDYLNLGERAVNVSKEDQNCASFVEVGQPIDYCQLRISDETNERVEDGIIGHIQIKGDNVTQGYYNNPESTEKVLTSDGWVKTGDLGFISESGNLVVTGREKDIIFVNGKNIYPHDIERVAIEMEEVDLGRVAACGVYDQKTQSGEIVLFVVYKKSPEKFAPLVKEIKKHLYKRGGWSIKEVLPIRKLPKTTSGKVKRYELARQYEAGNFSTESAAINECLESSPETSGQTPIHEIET

For `CCCCCCCCCCCC(=O)O` [C12, lauric acid], the “relative activity (C10 = 100%)” value [1] was “ItuAL_WT exhibited the highest activity against lauric acid (C12)”.

For `CCCCCCCCCCCCCCC(=O)O` [C15, pentadecanoic acid], the “relative activity (C10 = 100%)” value ((ituAL-ACP1)) was “ItuAL_F208G exhibited the highest activity against pentadecanoic acid (C15)”.
